Data reported in US8293481B2, “Biomarkers for chronic vascular dysfunction” (Mayo Foundation for Medical Education and Research, priority 2006, dated 2012).

Assays:
[1] = system: Sprague-Dawley rats, LAD ligation infarct model of CHF; experiment: Left ventricular function by transthoracic echocardiography (fractional shortening) in rat infarct model of CHF; assay type: in vivo; conditions: 2 weeks post-infarction; captopril 2 g/l in drinking water; uninfarcted 56%, placebo 29%
Description: After intubation, rats were ventilated continuously (room air) using a small animal ventilator (Model 683, Harvard Apparatus, Holliston, Mass.). A left lateral thoracotomy incision was made along the 5th intercostal space and after the pericardium was opened, the heart was exteriorized using a retention suture placed at the apex. The left anterior descending coronary artery (LAD) was ligated twice using 6-0 prolene suture (Ethicon, Cornelia, Ga.). After chest closure with running 3-0 vicryl suture (Ethicon), rats were put in a recovery chamber with a heating pad and warming light. The post-operative survival rate reached 80%. […] Rats were fed a standard diet of Teklad rodent feed (Harlan) ad libitum and kept on a 12:12 h light-dark cycle. Rats were sacrificed at designated time intervals of 2 weeks and 4 weeks after surgery. […] Cardiac function was estimated using fractional shortening (FS) obtained from the EDD and ESD in the parasternal long axis view and calculated as FS=((EDD-ESD)/EDD)×100%.

[2] = system: panel of genes listed in b69 and b71 (Tmlhe, Af6, F2, Ywag, PPAR A, Resp18, Edn1, oxytocin and others); experiment: Real-time PCR gene expression in aorta post MI, genes listed together as unchanged; assay type: in vivo, rat; conditions: post MI groups versus uninfarcted control
Description: After intubation, rats were ventilated continuously (room air) using a small animal ventilator (Model 683, Harvard Apparatus, Holliston, Mass.). A left lateral thoracotomy incision was made along the 5th intercostal space and after the pericardium was opened, the heart was exteriorized using a retention suture placed at the apex. The left anterior descending coronary artery (LAD) was ligated twice using 6-0 prolene suture (Ethicon, Cornelia, Ga.). After chest closure with running 3-0 vicryl suture (Ethicon), rats were put in a recovery chamber with a heating pad and warming light. The post-operative survival rate reached 80%. […] Confirmation of microarray result by quantitative real-time PCR: The remaining RNA from the aortic or portal vein RNA sample was quantitatively converted to single stranded cDNA using the High-Capacity cDNA Archive Kit (Applied Biosystems, Foster City, Calif.). […] The synthesized cDNA was then mixed with TAQMAN® Universal PCR Master Mix (2.5 μl of cDNA+47.5 μl of RNase-free H2O+50 μl of Master Mix) and loaded onto 384-Well micro fluid cards for quantitative real-time PCR (TAQMAN® Low Density Arrays, Applied Biosystems). […] For each cDNA sample, four replicates were analyzed for real-time PCR. […] The array was then run on the Applied Biosystems 7900HT Fast Real-time PCR System, and the data were analyzed using an Applied Biosystems RQ Manager Software (SDS 2.1). […]

## C[C@H](CS)C(=O)N1CCC[C@H]1C(=O)O [Captopril, 1-[(2S)-3-mercapto-2-methylpropionyl]-L-proline]
[1]
  fractional shortening (FS): 38%
[2]; 2 weeks post infarction
  expression of 14 genes (Taok1, Raf1, Fmr1, Rock2, Baat, Gls2, Acot8, Tmlhe, Af6, F2, Ywag, PPAR A, Resp18, Edn1 and oxytocin): no significant change
[2]; 4 weeks post infarction
  expression of 14 genes (MIR16, Agt, Cxcl12, Seh1h, Cox5, HGF, Tmlhe, Af6, F2, Ywag, PPAR A, Resp18, Edn1 and oxytocin): no significant change
